Reference: patent publication US10914725B2, “Culture medium additive, culture medium composition, and method for culturing cells or tissue using same” (NISSAN CHEMICAL INDUSTRIES, LTD., priority 2015, dated 2021)

Experiments:
[1] = tested on: adenocarcinomic human alveolar basal epithelial cell line A549; test: High content analysis of anticancer agents by cell image analysis (Experimental Example 8); type: cell-based; conditions: for IC50: Homo sapiens; for average cell number per sphere / average dead cell number in sphere / average sphere number per 20 mm^2 / projected area: 0.03 (w/v)% low-molecular agar medium, 7 days with agent;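 on projected area: Projected area in square micrometres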
Method: Adenocarcinomic human alveolar basal epithelial cell line A549 (manufactured by DS PHARMA BIOMEDICAL CO., LTD.) was suspended in the above-mentioned medium composition containing low-molecular agar at 11,000 cells/mL. […] The plate was stood in a CO2 incubator (37° C., 5% CO2) overnight. The next day, paclitaxel (manufactured by Wako Pure Chemical Industries, Ltd.) and trametinib (manufactured by SANTA CRUZ) were further added by 10 μl per 1 well at a final concentration of 0.001 μM, 0.01 μM and 0.1 μM, respectively, mitomycin C (manufactured by Wako Pure Chemical Industries, Ltd.) at a final concentration of 0.005 μM, 0.05 μM and 0.5 μM, and MK2206 (manufactured by SANTA CRUZ) at a final concentration of 0.001 μM, 0.01 μM, 0.1 μM and 1 μM. Successively, the plate was further cultured in a standing state in a CO2 incubator (37° C., 5% CO2) for 7 days.
Successively, a solution of 20 μg/mL Propidium Iodide (manufactured by BIOMOL) in DMEM (phenol red, L-glutamine free) (manufactured by Wako Pure Chemical Industries, Ltd.) was prepared and added at 10 μL per 1 well, and the culture medium was suspended. The plate was centrifuged at 1,500 rpm for 1 min, and high content analysis was performed by cell image analysis using a cell imaging apparatus (“ArrayScan VTI HCS Reader”, manufactured by Thermo Fisher Scientific). At that time, observation was performed with 20 fields of view per well using a ×10 objective lens, cell outline and cell nucleus were detected from Hoechst33342 fluorescence image, and dead cells were detected from propidium iodide fluorescence image. In addition, 50% inhibitory concentration (nM) of each anticancer agent by high content analysis was calculated from the number of spheres constituted of not less than 5 cells. In this case, the value without addition of the anticancer agent was taken as 0% sphere formation inhibitory rate.

[2] = tested on: adenocarcinomic human alveolar basal epithelial cell line A549; test: CellTiter-Glo cell survival assay of anticancer agents (Experimental Example 8); type: cell-based; conditions: for IC50: Homo sapiens, A549, cell survival assay by luminescence, read-out: 50% inhibitory concentration
Method: Adenocarcinomic human alveolar basal epithelial cell line A549 (manufactured by DS PHARMA BIOMEDICAL CO., LTD.) was suspended in the above-mentioned medium composition containing low-molecular agar at 11,000 cells/mL. The above-mentioned cell suspension was dispensed to the wells of a 96 well flat bottom ultra-low attachment surface microplate (manufactured by Corning Incorporated, #3474) at 90 μL per 1 well. The plate was stood in a CO2 incubator (37° C., 5% CO2) overnight. […] Successively, the plate was further cultured in a standing state in a CO2 incubator (37° C., 5% CO2) for 7 days. As a negative control, a medium composition containing 10 (v/v) % FBS alone in DMEM (manufactured by Wako Pure Chemical Industries, Ltd.) was prepared. […] A549 cells were also suspended in each of the negative control and comparison control medium compositions, the negative control was dispensed to a 96 well flat bottom attachment surface microplate (manufactured by Corning Incorporated, #3585) and the comparison control was dispensed to a 96 well flat bottom ultra-low attachment surface microplate (manufactured by Corning Incorporated, #3474). […] CellTiter-Glo Luminescent Cell Viability Assay (manufactured by Promega) (100 μL) was added to the low-molecular agar-containing culture medium and each cell culture medium of the negative control and comparison control, the mixture was stood for 10 min at room temperature, and the amount of luminescence was measured by a microplate reader (“FlexStation 3”, manufactured by Molecular Devices) and according to the protocol recommended by Promega. The amount of luminescence of the medium alone was subtracted, whereby the number of viable cells was measured.

[3] = comparison control (0.015 (w/v)% deacylated gellan gum medium)
[4] = low-molecular agar-containing medium
[5] = negative control (DMEM, 10% FBS, attachment surface plate)
[6] = A549, high content analysis by cell image analysis, number of spheres of not less than 5 cells, low-molecular agar-containing medium, read-out: 50% inhibitory concentration
[7] = agent 0.001 μM, comparison control (0.015 (w/v)% deacylated gellan gum medium)
[8] = agent 0.001 μM, low-molecular agar-containing medium
[9] = agent 0.001 μM, negative control (DMEM, 10% FBS, attachment surface plate)
[10] = agent 0.01 μM, comparison control (0.015 (w/v)% deacylated gellan gum medium)
[11] = agent 0.01 μM, low-molecular agar-containing medium
[12] = agent 0.01 μM, negative control (DMEM, 10% FBS, attachment surface plate)
[13] = agent 0.1 μM, comparison control (0.015 (w/v)% deacylated gellan gum medium)
[14] = agent 0.1 μM, low-molecular agar-containing medium
[15] = agent 0.1 μM, negative control (DMEM, 10% FBS, attachment surface plate)

With `CO[C@@]12[C@H](COC(N)=O)C3=C(C(=O)C(C)=C(N)C3=O)N1C[C@@H]1N[C@@H]12` [mitomycin C] the IC50 ([1]; A549, read-out: 50% inhibitory concentration) was 6.4 nM, the “average cell number per sphere” value ([1]; agent 0.005 μM) was 3.72 and the “average dead cell number in sphere” value ([1]; agent 0.005 μM) was 0.151. The “average sphere number per 20 mm^2” value ([1]; agent 0.005 μM) was 265.2, the projected area ([1]; agent 0.005 μM) was 1139 μm^2 and the “average cell number per sphere” value ([1]; agent 0.05 μM) was 2.187. The “average dead cell number in sphere” value ([1]; agent 0.05 μM) was 0.33, the “average sphere number per 20 mm^2” value ([1]; agent 0.05 μM) was 190.6 and the projected area ([1]; agent 0.05 μM) was 810.7 μm^2. The “average cell number per sphere” value ([1]; agent 0.5 μM) was 1.447, the “average dead cell number in sphere” value ([1]; agent 0.5 μM) was 0.606 and the “average sphere number per 20 mm^2” value ([1]; agent 0.5 μM) was 113.3. It also gave a projected area ([1]; agent 0.5 μM) of 460.8 μm^2, an IC50 [2, 3] of 12.1 nM and an IC50 [2, 4] of 10 nM. For the same compound, the IC50 [2, 5] was 71.4 nM, the “relative cell number (no anticancer agent = 100)” value ([2]; agent 0.005 μM, comparison control (0.015 (w/v)% deacylated gellan gum medium)) was 62.8 and the “relative cell number (no anticancer agent = 100)” value ([2]; agent 0.005 μM, low-molecular agar-containing medium) was 59.5. The “relative cell number (no anticancer agent = 100)” value ([2]; agent 0.005 μM, negative control (DMEM, 10% FBS, attachment surface plate)) was 94, the “relative cell number (no anticancer agent = 100)” value ([2]; agent 0.05 μM, comparison control (0.015 (w/v)% deacylated gellan gum medium)) was 29.5 and the “relative cell number (no anticancer agent = 100)” value ([2]; agent 0.05 μM, low-molecular agar-containing medium) was 27.8. The “relative cell number (no anticancer agent = 100)” value ([2]; agent 0.05 μM, negative control (DMEM, 10% FBS, attachment surface plate)) was 55.9, the “relative cell number (no anticancer agent = 100)” value ([2]; agent 0.5 μM, comparison control (0.015 (w/v)% deacylated gellan gum medium)) was 8.6 and the “relative cell number (no anticancer agent = 100)” value ([2]; agent 0.5 μM, low-molecular agar-containing medium) was 8.1. For the same compound, the “relative cell number (no anticancer agent = 100)” value ([2]; agent 0.5 μM, negative control (DMEM, 10% FBS, attachment surface plate)) was 12.3.
In the case of `NC1(c2ccc(-c3nc4ccn5c(=O)[nH]nc5c4cc3-c3ccccc3)cc2)CCC1` [MK2206], the IC50 [1, 6] is reported as 210 nM, the “average cell number per sphere” value ([1]; agent 0.001 μM) is reported as 5.044 and the “average dead cell number in sphere” value ([1]; agent 0.001 μM) is reported as 0.104. The “average sphere number per 20 mm^2” value ([1]; agent 0.001 μM) was 230.6, the projected area ([1]; agent 0.001 μM) was 1361 μm^2 and the “average cell number per sphere” value ([1]; agent 0.01 μM) was 4.774. For the same compound, the “average dead cell number in sphere” value ([1]; agent 0.01 μM) was 0.074, the “average sphere number per 20 mm^2” value ([1]; agent 0.01 μM) was 213.7 and the projected area ([1]; agent 0.01 μM) was 1343 μm^2. The “average cell number per sphere” value ([1]; agent 0.1 μM) was 4.323, the “average dead cell number in sphere” value ([1]; agent 0.1 μM) was 0.076 and the “average sphere number per 20 mm^2” value ([1]; agent 0.1 μM) was 206.1. For the same compound, the projected area ([1]; agent 0.1 μM) was 1199 μm^2, the “average cell number per sphere” value ([1]; agent 1 μM) was 3.423 and the “average dead cell number in sphere” value ([1]; agent 1 μM) was 0.332. The “average sphere number per 20 mm^2” value ([1]; agent 1 μM) was 142.3, the projected area ([1]; agent 1 μM) was 931.2 μm^2 and the IC50 [2, 3] was 210 nM. For the same compound, the IC50 [2, 4] was 250 nM, the IC50 [2, 5] was no less than 1000 nM and the “relative cell number (no anticancer agent = 100)” value [2, 7] was 95.8. For the same compound, the “relative cell number (no anticancer agent = 100)” value [2, 8] was 100.1, the “relative cell number (no anticancer agent = 100)” value [2, 9] was 100.2 and the “relative cell number (no anticancer agent = 100)” value [2, 10] was 89.1. For the same compound, the “relative cell number (no anticancer agent = 100)” value [2, 11] was 93.9, the “relative cell number (no anticancer agent = 100)” value [2, 12] was 101.3 and the “relative cell number (no anticancer agent = 100)” value [2, 13] was 61.8. For the same compound, the “relative cell number (no anticancer agent = 100)” value [2, 14] was 66.5, the “relative cell number (no anticancer agent = 100)” value [2, 15] was 97.6 and the “relative cell number (no anticancer agent = 100)” value ([2]; agent 1 μM, comparison control (0.015 (w/v)% deacylated gellan gum medium)) was 25.2. The “relative cell number (no anticancer agent = 100)” value ([2]; agent 1 μM, low-molecular agar-containing medium) was 25.7 and the “relative cell number (no anticancer agent = 100)” value ([2]; agent 1 μM, negative control (DMEM, 10% FBS, attachment surface plate)) was 95.7.
`CC(=O)Nc1cccc(-n2c(=O)n(C3CC3)c(=O)c3c(Nc4ccc(I)cc4F)n(C)c(=O)c(C)c32)c1` [trametinib] was tested, and the IC50 [1, 6] was 5.1 nM, the “average cell number per sphere” value ([1]; agent 0.001 μM) was 4.272 and the “average dead cell number in sphere” value ([1]; agent 0.001 μM) was 0.073. For the same compound, the “average sphere number per 20 mm^2” value ([1]; agent 0.001 μM) was 218.7, the projected area ([1]; agent 0.001 μM) was 1200 μm^2 and the “average cell number per sphere” value ([1]; agent 0.01 μM) was 2.906. For the same compound, the “average dead cell number in sphere” value ([1]; agent 0.01 μM) was 0.09, the “average sphere number per 20 mm^2” value ([1]; agent 0.01 μM) was 173.9 and the projected area ([1]; agent 0.01 μM) was 976.6 μm^2. For the same compound, the “average cell number per sphere” value ([1]; agent 0.1 μM) was 1.867, the “average dead cell number in sphere” value ([1]; agent 0.1 μM) was 0.178 and the “average sphere number per 20 mm^2” value ([1]; agent 0.1 μM) was 132.8. It also gave a projected area ([1]; agent 0.1 μM) of 618.3 μm^2, an IC50 [2, 3] of 11.5 nM and an IC50 [2, 4] of 8.1 nM. The IC50 [2, 5] was 62.5 nM, the “relative cell number (no anticancer agent = 100)” value [2, 7] was 93.3 and the “relative cell number (no anticancer agent = 100)” value [2, 8] was 92.2. The “relative cell number (no anticancer agent = 100)” value [2, 9] was 101.2, the “relative cell number (no anticancer agent = 100)” value [2, 10] was 52.5 and the “relative cell number (no anticancer agent = 100)” value [2, 11] was 45.8. For the same compound, the “relative cell number (no anticancer agent = 100)” value [2, 12] was 99, the “relative cell number (no anticancer agent = 100)” value [2, 13] was 18.1 and the “relative cell number (no anticancer agent = 100)” value [2, 14] was 18.2. For the same compound, the “relative cell number (no anticancer agent = 100)” value [2, 15] was 37.4.
